Data from ChEMBL document CHEMBL1147753, “Biphenyl-4-ylcarbamoyl thiophene carboxylic acids as potent DHODH inhibitors” (Bioorg Med Chem Lett, 2006).

Legend:
[1] = target: Dihydroorotate dehydrogenase (quinone), mitochondrial (Homo sapiens, UniProt Q02127); test: Inhibitory activity against recombinant human DHODH
PBMC = test: Antiproliferative activity on human PBMC; type: functional, cell-based

Dihydroorotate dehydrogenase (quinone), mitochondrial, sequence (Q02127 whole entry): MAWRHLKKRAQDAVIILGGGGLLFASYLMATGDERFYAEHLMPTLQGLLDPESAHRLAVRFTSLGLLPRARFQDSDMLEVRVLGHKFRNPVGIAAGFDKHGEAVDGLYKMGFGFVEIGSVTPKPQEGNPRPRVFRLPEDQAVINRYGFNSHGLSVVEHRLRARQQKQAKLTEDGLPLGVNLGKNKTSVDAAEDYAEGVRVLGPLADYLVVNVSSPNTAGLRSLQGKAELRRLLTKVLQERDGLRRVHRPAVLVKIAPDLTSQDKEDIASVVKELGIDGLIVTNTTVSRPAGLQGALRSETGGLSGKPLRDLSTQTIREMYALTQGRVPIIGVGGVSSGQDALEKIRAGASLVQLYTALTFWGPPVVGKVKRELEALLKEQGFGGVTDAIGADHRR

IC50 [1] [µM] | Structure (SMILES) | IC50 (PBMC) [µM]
0.01 | CCOc1ccccc1-c1cc(F)c(NC(=O)c2cscc2C(=O)O)c(F)c1 | –
> 1 | COc1cccc(-c2ccc(NC(=O)c3cc(C(=O)O)sc3C(=O)O)c(F)c2)c1 | –
0.003 | CCOc1cccc(-c2cc(F)c(NC(=O)c3ccsc3C(=O)O)c(F)c2)c1 | –
> 1 | COc1cccc(-c2ccc(NC(=O)c3c(C(=O)O)csc3C(=O)O)c(F)c2)c1 | –
> 1 | COc1cccc(-c2ccc(NC(=O)c3csc(C(=O)O)c3C(=O)O)c(F)c2)c1 | –
0.016 | CCOc1cccc(-c2cc(F)c(NC(=O)c3cocc3C(=O)O)c(F)c2)c1 | 15
– | COc1ccccc1-c1c(F)c(F)c(NC(=O)c2ccsc2C(=O)O)c(F)c1F | 2
0.012 | COc1ccccc1-c1ccc(NC(=O)c2ccsc2C(=O)O)cc1Cl | –
0.01 | O=C(O)c1cscc1C(=O)Nc1c(F)cc(-c2ccccc2OC(F)(F)F)cc1F | 2
1 | O=C(O)c1cscc1C(=O)Nc1ccc(-c2ccccc2)cc1 | –
0.303 | O=C(Nc1ccc(-c2ccccc2)cc1)c1ccsc1C(=O)O | –
0.34 | COc1cccc(-c2ccc(NC(=O)c3cocc3C(=O)O)c(F)c2)c1 | –
0.009 | CCOc1ccccc1-c1cc(F)c(NC(=O)c2ccsc2C(=O)O)c(F)c1 | –
0.044 | COc1cccc(-c2ccc(NC(=O)c3ccsc3C(=O)O)c(F)c2)c1 | 20
